Assay results: patent EP4678629A1, “IONIZABLE LIPID MOLECULE, PREPARATION METHOD THEREFOR AND USE THEREOF” (Maxirna (Shanghai) Pharmaceutical Co., Ltd., priority 2023, dated 2024)

Legend:
[1] = In vitro transfection of cells with eGFP-mRNA lipid nanoparticle (LNP preparation), fluorescence imaging and flow cytometry; type: cell-based, mouse; conditions: mouse, dc2.4 cells, 200 ng of mRNA per well, after 24 hours; read-out: Cell viability, %
Outline: (§1)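 Mouse bone marrow-derived DC2.4 dendritic cells seeded at 2 × 10^5 cells/well in DMEM with 10% FBS, transfected with eGFP-mRNA LNPs the next day at 37 °C, 5% CO2. After 24 hours, viability, eGFP-positive rate and mean fluorescence intensity read by fluorescence imaging and flow cytometry.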

DC2.4 cells = experiment: as above; type: cell-based, mouse; conditions: eGFP positivity rate, DC2.4 cells, 200 ng of mRNA per well, after 24 hours
Outline: as §1

mice = experiment: In vivo transfection with Fluc-mRNA lipid nanoparticle (LNP preparation), live imaging of fluorescence intensity; conditions: 0.5 mg/kg
Experimental: According to the method described in Example II , LNP lipid nanoparticles of Fluc-mRNA (Maxirna FLuc mRNA, 1 mg/mL), SM-102 (CAS number: 2089251-47-6, A.V.T (Shanghai) Pharmaceutical Co., Ltd.), and positive control 1 (US10195156B2, it was prepared according to the method described in the above embodiment, the main difference lay in replacing 2-((3-aminopropyl)amino)ethane-1-ol with 2-((2-aminoethyl)amino)ethane-1-ol, the structure was as shown in FIG. 1) were prepared respectively. Cholesterol (Chol), DSPC, DOPE, and DMG-PEG2000 were purchased from A.V.T (Shanghai) Pharmaceutical Co., Ltd. Mice were randomly selected, and the lipid nanoparticles were injected intravenously and intramuscularly (4 mice per group) at a dosage of 0.5 mg/kg. Tris and Fluc-mRNA were directly injected as controls. After 6 hours, 200 ul of 10 mg/ml D-luciferin potassium salt was respectively injected into each mouse through the tail vein. After 10 minutes, the mice were placed under a live imaging system to observe the total fluorescence intensity of each mouse and take photos for recording. After 24 hours, the mice were placed under the live imaging system to observe the total fluorescence intensity of each mouse and take photos for recording. Table 2: Preparation parameters of each LNP
(§2) LNP lipid nanoparticles of Fluc-mRNA were respectively prepared using the method described in Example II. Mice were randomly selected, and the lipid nanoparticles were injected intramuscularly (2 mice per group) at a dosage of 0.5 mg/kg. Tris was directly injected as a control. After 6 hours, 200 ul of 10 mg/ml D-luciferin potassium salt was respectively injected into each mouse through the tail vein. After 10 minutes, the mice were placed under a live imaging system to observe the total fluorescence intensity of each mouse and take photos for recording. After 24 hours, the mice were placed under the live imaging system to observe the total fluorescence intensity of each mouse and take photos for recording. Table 3: Preparation parameters of each LNP
as §2, with “II .” for “II.”, “(3” for “(2”, “4:” for “3:”

[2] = Size and polydispersity index (PDI) of the lipid nanoparticle by dynamic light scattering; type: physicochemical; conditions: LNP encapsulating eGFP mRNA, ionizable lipid/DOPE/cholesterol/DMG-PEG2000 50/10/48.25/1.25 mol%, N/P 12
Outline: (§3)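 LNPs were made by microfluidic mixing of ionizable lipid/DOPE/cholesterol/DMG-PEG2000 (50/10/48.25/1.25 mol%) in ethanol with eGFP mRNA in 20 mM citrate pH 6.1, N/P 12, then ultrafiltered into DPBS and 0.2 µm filtered. Size and PDI by DLS at 173° backscatter; encapsulation by Ribogreen.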

[3] = Encapsulation efficiency of the lipid nanoparticle (eGFP mRNA) by Ribogreen method; type: physicochemical; conditions: LNP encapsulating eGFP mRNA, ionizable lipid/DOPE/cholesterol/DMG-PEG2000 50/10/48.25/1.25 mol%, N/P 12
Outline: as §3

[4] = Fluc-mRNA LNP of Table 2 (DOPE), intramuscular

PDI [2]: 0.22
Particle size ([2]; in nm (unit assumed)): 88.51
Encapsulation rate, % [3]: 90.54%
Structure (SMILES): CCCCCCCCCCCOC(=O)CCCN(CCO)CCCN(CCCC(=O)OCCCCCCCCCCC)CCCC(=O)OCCCCCCCCCCC [Example 12, Diundecyl 4,4'-((3-((2-hydroxyethyl)(4-oxo-4-(undecyloxy)butyl)amino)propyl)azanediyl)dibutanoate]
viability at 24 h [1]: 81.2%
Positive rate, % (DC2.4 cells): 97.78%
expression in the chest and abdomen (mice; [4]): much lower than that of SM-102
fluorescence intensity, intramuscular injection administration (mice; [4]): still maintain high fluorescence intensity
fluorescence intensity (mice; Fluc-mRNA LNP of Table 2 (DOPE), intravenous and intramuscular injection, 6 and 24 hours): stronger than that of positive control 1 and comparable to SM-102
whole-body expression (mice; Fluc-mRNA LNP of Table 3 (DSPC), intramuscular, 6 and 24 hours): even better than SM-102
